From PubChem BioAssay (NCI)
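Briefly, cells in 96-well plates were exposed to five compound concentrations for 48 h, and endpoints were estimated by linear interpolation. TGI: total growth inhibition.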 Where a SMILES comes first, the peptide text is derived from it. The star is where a group is joined. OSu = O=C1CCC(=O)N1O*

How the values were obtained:
Assay in all cases: DTP human tumour cell line panel, 48 h
ACHN renal = system: ACHN renal
EKVX NSCLC = system: EKVX NSCLC
HOP-62 NSCLC = system: HOP-62 NSCLC
HS 578T breast = system: HS 578T breast
MDA-MB-435 = system: MDA-MB-435
NCI-H23 lung = system: NCI-H23 lung
SF-539 CNS = system: SF-539 CNS
SK-MEL-2 melanoma = system: SK-MEL-2 melanoma
TK-10 renal = system: TK-10 renal
OVCAR-4 ovarian = system: OVCAR-4 ovarian

Row | Structure (SMILES) | TGI (ACHN renal) | TGI (EKVX NSCLC) | TGI (HOP-62 NSCLC) | TGI (HS 578T breast) | TGI (MDA-MB-435) | TGI (NCI-H23 lung) | TGI (SF-539 CNS) | TGI (SK-MEL-2 melanoma) | TGI (TK-10 renal) | TGI (OVCAR-4 ovarian)
1 | C=CCCC(=O)C(=[N+]=[N-])C(=O)CCC(=O)c1ccccc1 | > 10 µM | > 10 µM | > 10 µM | > 10 µM | > 10 µM | > 10 µM | > 10 µM | > 10 µM | > 10 µM | –
2 | CC1(C)OC2OC(COC(=O)c3ccc(C#N)cc3)C3OC(C)(C)OC3C2O1 (configuration not stated) | > 75 µM | > 75 µM | > 75 µM | – | > 75 µM | > 75 µM | > 75 µM | > 75 µM | > 75 µM | > 75 µM
3 | CN1NC(c2ccccc2)=C(C#N)C(=O)CC1c1ccc(Br)cc1 (configuration not stated) | > 100 µM | – | 61 µM | – | – | > 100 µM | – | 70 µM | > 100 µM | > 100 µM
4 | COc1ccc(/C(Cl)=C(\C=O)c2ccc(Cl)cc2)cc1OC | 13.1 µM | > 100 µM | 42.3 µM | – | – | 8.36 µM | – | 57.2 µM | 31.1 µM | 73.6 µM
5 | COc1cc2c(c(OC)c1OC)-c1ccc(SC)c(=O)cc1C(CC(=O)Oc1cccc(F)c1)C2 (configuration not stated) | > 100 µM | > 100 µM | > 100 µM | – | – | 0.805 µM | 0.387 µM | 9.57 µM | > 100 µM | > 100 µM
6 | Cc1ccc(C2C(Cl)C(=O)N2NC(=O)c2ccc(N)cc2)cc1 (configuration not stated) | > 100 µM | 49.7 µM | 50.2 µM | – | – | 38.3 µM | 41.6 µM | 19.8 µM | > 100 µM | > 100 µM
7 | CC(=O)n1nc(-c2ccc3ccccc3c2)nc1C | > 100 µM | > 100 µM | > 100 µM | > 100 µM | > 100 µM | – | > 100 µM | > 100 µM | > 100 µM | > 100 µM
8 | COc1ccc2c3c1OC1C(OC)(OC)CC4(C=C2)CN(C)CCC314 (configuration not stated) | > 100 µM | > 100 µM | > 100 µM | – | > 100 µM | > 100 µM | > 100 µM | – | > 100 µM | > 100 µM
9 | CCOC(=O)C1(C(=O)OCC)C=C(c2ccccc2)N(C2OC(COC(C)=O)C(OC(C)=O)C(OC(C)=O)C2OC(C)=O)C1=S (configuration not stated) | – | > 100 µM | > 100 µM | > 100 µM | > 100 µM | > 100 µM | > 100 µM | > 100 µM | – | > 100 µM
10 | Cc1cc(NS(=O)(=O)c2ccc(Nc3c4ccccc4nc4c(C(=O)NCCO)cccc34)cc2)no1 | > 100 µM | > 100 µM | > 100 µM | > 100 µM | > 100 µM | > 100 µM | – | 74 µM | > 100 µM | 86.7 µM
11 | Cc1ccc(SCC(OCn2cnc3c(Cl)nc(N)nc32)[C@H](C)F)cc1 (some centres not stated) | > 100 µM | – | > 100 µM | > 100 µM | > 100 µM | > 100 µM | > 100 µM | > 100 µM | > 100 µM | > 100 µM
12 | COc1ccc(CCN2C(=O)CC34C=CC(CC3C2=O)O4)cc1OC (configuration not stated) | > 100 µM | > 100 µM | > 100 µM | – | > 100 µM | > 100 µM | > 100 µM | > 100 µM | > 100 µM | > 100 µM
13 | NCCCCC(NC(=O)C(N)Cc1ccc(O)cc1)C(=O)NC(Cc1ccc(O)cc1)C(=O)NC(CCCCN)C(=O)ON1C(=O)CCC1=O (configuration not stated) (H-YKYK-OSu; configuration not given here) | > 100 µM | > 100 µM | > 100 µM | > 100 µM | – | > 100 µM | – | > 100 µM | > 100 µM | –
14 | OC12CCC3(O)c4ccccc4C3C1c1ccccc12 (configuration not stated) | > 100 µM | > 100 µM | > 100 µM | – | – | > 100 µM | – | > 100 µM | > 100 µM | > 100 µM
15 | CC12CCC(CC1(Cl)Cl)C2 (configuration not stated) | > 100 µM | > 100 µM | > 100 µM | > 100 µM | > 100 µM | > 100 µM | – | > 100 µM | > 100 µM | > 100 µM
16 | CCOC(=O)c1nc2cc(C(F)(F)F)ccc2nc1Oc1ccc(F)cc1 | > 100 µM | > 100 µM | – | > 100 µM | > 100 µM | – | > 100 µM | > 100 µM | > 100 µM | > 100 µM
17 | NS(=O)(=O)c1nnc(NS(=O)(=O)c2ccc([N+](=O)[O-])cc2)s1 | > 100 µM | > 100 µM | > 100 µM | – | > 100 µM | > 100 µM | > 100 µM | > 100 µM | > 100 µM | > 100 µM
18 | CCn1c(CSc2nc(-c3ccccc3)c(-c3ccccc3)[nH]2)n[nH]c1=S | > 100 µM | > 100 µM | > 100 µM | – | – | > 100 µM | > 100 µM | > 100 µM | > 100 µM | > 100 µM
19 | Cc1ccc(/S(Cc2ccccc2)=N\S(=O)(=O)c2ccc(C)cc2)cc1 (configuration not stated) | > 100 µM | > 100 µM | > 100 µM | – | > 100 µM | > 100 µM | > 100 µM | – | > 100 µM | –
20 | COc1ccc2c(c1OC)C(=O)O[C@@H]2[C@H]1c2c(cc3c(c2OC)OCO3)CCN1C | > 100 µM | – | > 100 µM | 67.4 µM | 32.2 µM | > 100 µM | > 100 µM | > 100 µM | – | > 100 µM
21 | COc1cc(OC)c(OC)cc1/C=C/c1cc[n+](C)c2ccccc12 | > 100 µM | > 100 µM | > 100 µM | – | – | 97.4 µM | – | – | > 100 µM | > 100 µM
22 | CCCCCCCCCC(=O)NC(Cc1ccc(O)cc1)C(=O)NCCCNCCCCNCCCNC(=O)[C@@H](N)CCCN=C(N)N (some centres not stated) | 67 µM | > 100 µM | 69.5 µM | – | – | > 100 µM | 26.8 µM | – | > 100 µM | –
23 | O=c1c2c3c(sc2nc2n1N=CN(c1ccc(F)cc1)C2)CCCC3 | > 100 µM | > 100 µM | > 100 µM | > 100 µM | > 100 µM | > 100 µM | – | > 100 µM | > 100 µM | > 100 µM
24 | CCC(=O)Nc1ccc(NCC(=O)Nc2ccc(OC)cc2)cc1 | > 100 µM | 70.7 µM | 11.6 µM | > 100 µM | > 100 µM | 41.8 µM | 38.6 µM | 38.5 µM | – | 35.2 µM
